Measured values taken from US20090082367A1, “TRIAZOLE DERIVATIVE OR A SALT THEREOF” (ASTELLAS PHARMA INC., priority 2006, published 2009).

Legend:
[1] = molecular target: T1, human recombinant 11β-HSD2 (Homo sapiens, UniProt P80365); experiment: Measuring test of human 11β-HSD2-inhibitory activity (HTRF cortisol detection); type: biochemical; conditions: human recombinant 11β-HSD2, 200 nM cortisol, 200 μM NAD, pH 8.0, 37° C. 2 hours
T1 sequence (P80365 1-405): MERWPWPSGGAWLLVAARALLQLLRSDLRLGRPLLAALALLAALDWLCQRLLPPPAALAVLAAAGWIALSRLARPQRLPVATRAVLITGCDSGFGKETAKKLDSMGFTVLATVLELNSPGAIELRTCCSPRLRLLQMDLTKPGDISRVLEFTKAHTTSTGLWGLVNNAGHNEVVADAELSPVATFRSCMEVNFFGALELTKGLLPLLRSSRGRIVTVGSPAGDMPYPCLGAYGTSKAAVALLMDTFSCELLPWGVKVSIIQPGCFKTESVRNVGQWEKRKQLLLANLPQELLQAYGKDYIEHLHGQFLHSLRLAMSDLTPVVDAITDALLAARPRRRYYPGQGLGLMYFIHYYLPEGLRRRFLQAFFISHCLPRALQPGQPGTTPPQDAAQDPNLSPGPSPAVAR
Method: Measurement of the 11β-HSD2 activity was carried out by the same method of the 11β-HSD1 activity measurement, except for the enzyme reaction conditions. The enzyme reaction was carried out by adding the compound to be tested having varied concentration to a reaction liquid consisting of 40 mM Tris-HCl buffer (pH 8.0), 200 nM cortisol, 200 μM nicotinamide adenine dinucleotide (NAD) and human recombinant 11β-HSD2, and then incubating at 37° C. for 2 hours (10 μl/well).
(§1) The measured result was calculated by averaging the values of 3 wells of the same condition. The ratio when DMSO was added instead of the compound to be tested was regarded as 0% and the ratio when 11β-HSD1 or 11β-HSD2 was not added was regarded as 100%, thereby calculating 50% inhibition concentration of the compound to be tested as IC50 of the compound inhibitory activity.

ob/ob male mice [2] = experiment: Ob/ob mouse blood glucose-lowering test; type: in vivo; conditions: oral 10 mg/kg bid for 9 days, non-fasting, 12 hours after final administration, n=6
Method: (§2) Using 6% 2-hydroxypropyl-β-cyclodextrin as the solvent, a compound liquid was prepared. Blood glucose values were measured under non-fasting using ob/ob male mice of 9 weeks of age (blood glucose value, 300 mg/dl or more), and then arrangement into groups was carried out at random in such a manner that their blood glucose values became uniform. The compound to be tested was repeatedly orally administered (10 mg/kg, bid) twice a day for 9 days, and blood glucose values after 12 hours of the final administration were measured (n=6). The blood glucose value was measured by carrying out colorimetric determination of the amount of glucose (mg/dl) in heparin blood plasma obtained by collecting blood in a heparin-coated glass capillary and subsequently centrifuging it.

[3] = molecular target: T2, human recombinant 11β-HSD1 (Homo sapiens, UniProt P28845); experiment: Measuring test of human 11β-HSD1-inhibitory activity (HTRF cortisol detection); type: biochemical; conditions: human recombinant 11β-HSD1, 20 nM cortisone, 40 μM NADPH, pH 6.6, room temperature 1 hour
T2 construct: made in house
Method: The procedure for measuring 11β-HSD1-inhibitory activity is as follows. In this connection, the enzyme reaction and measurement were carried out using a 384-well plate. The enzyme was prepared in accordance with a reference (Walker E. A. et al., Journal of Biological Chemistry, 2001, vol. 276, p. 21343-21350). The reaction was carried out by adding the compound to be tested having varied concentration to a reaction liquid consisting of 10 mM phosphate buffer (pH 6.6), 20 nM cortisone, 40 μM reduced nicotinamide adenine dinucleotide phosphate (NADPH) and human recombinant 11β-HSD1, and then incubating at room temperature for 1 hour (10 μl/well). The compound to be tested was prepared by dissolving in dimethyl sulfoxide (DMSO) to a DMSO concentration of 1% in the reaction liquid. After the enzyme reaction, the enzyme inhibitory activity was measured by detecting cortisol using a homogeneous time-resolved fluorescence method (HTRF). Each of the XL-665-labeled cortisol containing 400 μM carbenoxolone and cryptate-labeled cortisol antibody (CIS bio international) was added in 5 μl/well portions and incubated at room temperature for 2 hours, and then the fluorescence intensity was measured using a fluorophotometer (trade name: Discovery, Perkin Elmer), and the enzyme inhibitory activity was calculated from the fluorescence intensity ratio at two wavelengths (665 nm/620 nm).
as §1

ob/ob male mice [4] = experiment: Ob/ob mouse triglyceride-lowering test; type: in vivo; conditions: oral 10 mg/kg bid for 9 days, non-fasting, 12 hours after final administration, n=6
Method: as §2, with “Triglyceride” for “Blood glucose”, “age,” for “age (blood glucose value, 300 mg/dl or more),”, “triglyceride” for “blood glucose”, “Triglyceride” for “The blood glucose value”, “triglyceride” for “glucose”

T2 sequence (P28845 whole entry): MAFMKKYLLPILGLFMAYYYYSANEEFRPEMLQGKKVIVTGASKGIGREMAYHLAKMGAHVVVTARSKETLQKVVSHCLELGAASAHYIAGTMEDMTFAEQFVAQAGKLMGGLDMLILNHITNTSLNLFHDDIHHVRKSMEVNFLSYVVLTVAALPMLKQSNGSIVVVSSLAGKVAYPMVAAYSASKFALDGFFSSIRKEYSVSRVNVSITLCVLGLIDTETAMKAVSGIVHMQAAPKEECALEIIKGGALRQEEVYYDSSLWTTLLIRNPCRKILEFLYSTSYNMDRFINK

Compound	IC50 [1]	blood glucose-lowering action (ob/ob male mice [2])	IC50 [3]	triglyceride-lowering action (ob/ob male mice [4])
CC(C)(c1ccc(Br)s1)c1nnc(C2CC2)n1CCc1c(F)cccc1F [Example 167]	> 30 µM	24%	0.07 µM	
Fc1ccc(CCn2c(C3CC3)nnc2C2(c3ccccn3)CCC2)cc1 [Example 198]	> 10 µM		0.025 µM	
CC(C)(c1ccccn1)c1nnc(C2CC2)n1CCc1c(F)cccc1F [Example 154]	> 30 µM	21%	0.038 µM	
CC(C)(c1ccc(Br)s1)c1nnc(C2CC2)n1C1CC1 [Example 3, 3-[1-(5-bromo-2-thienyl)-1-methylethyl]-4,5-dicyclopropyl-4H-1,2,4-triazole]	> 3 µM	27%	0.0079 µM	50%
Brc1ccn(C2(c3nnc(C4CC4)n3C3CC3)CCC2)c1 [Example 213]	> 10 µM		0.041 µM	
CC(C)(c1nnc(C2CC2)n1C1CC1)n1cccc1Cl [Example 9, 3-[1-(2-chloro-1H-pyrrol-1-yl)-1-methylethyl]-4,5-dicyclopropyl-4H-1,2,4-triazole]	> 30 µM		0.062 µM	
CC(C)(c1ccc(C(F)(F)F)s1)c1nnc(C2CC2)n1C1CC1 [Example 169]	> 10 µM		0.024 µM	
Cn1c(C2(C)CC2)nnc1C(C)(C)c1ccc(Cl)s1 [Example 283]	> 3 µM		0.0024 µM	
CC(C)(c1cc(Br)cs1)c1nnc(C2CC2)n1C1CC1 [Example 77]	> 10 µM		0.012 µM	
CC(C)(c1cccc(Cl)n1)c1nnc(C2CC2)n1CCc1ccccc1 [Example 85]	> 10 µM		0.034 µM	
CC(C)(c1sc(C(F)(F)F)cc1F)c1nnc(C2CC2)n1C1CC1 [Example 280]	> 3 µM	35%	0.0047 µM	42%
Cn1c(C(C)(C)C)nnc1C(C)(C)c1ccc(Cl)s1 [Example 281]	> 3 µM		0.0052 µM	
CC(C)(c1ccsc1)c1nnc(C2CC2)n1C1CC1 [Example 172]	> 10 µM	27%	0.019 µM	
CN(C1CCC1)C(C)(C)c1nnc(C2CC2)n1C1CC1 [Example 57]	> 30 µM		0.07 µM	
CC(C)(c1ccsc1)c1nnc(C2CCC2)n1C1CC1 [Example 173]	> 10 µM		0.012 µM	
